According to ChEMBL document CHEMBL1123377, “Potent antagonists of vasopressin antidiuretic activity that lack the beta,beta-cyclopentamethylene-beta-mercaptopropionic acid substitution at position 1” (J Med Chem, 1986):
Active and inactive are the calls of the source. The calls are words filed in the database; no cut-off is given here.

Legend:
Rattus norvegicus [1] = assay: Compound was tested in vivo to lower urine osmolality to 300 mOsm/kg in hydropenic rat preparation.; type: functional
[2] = molecular target: Vasopressin V2 receptor (Sus scrofa) (UniProt P32307); assay: Compound was tested for binding affinity against V2 vasopressin receptor in pig renal medullary membrane preparations using tritiated LVP.; type: cell membranes; settings: Renal medulla
Vasopressin V2 receptor (Sus scrofa), sequence (P32307 whole entry): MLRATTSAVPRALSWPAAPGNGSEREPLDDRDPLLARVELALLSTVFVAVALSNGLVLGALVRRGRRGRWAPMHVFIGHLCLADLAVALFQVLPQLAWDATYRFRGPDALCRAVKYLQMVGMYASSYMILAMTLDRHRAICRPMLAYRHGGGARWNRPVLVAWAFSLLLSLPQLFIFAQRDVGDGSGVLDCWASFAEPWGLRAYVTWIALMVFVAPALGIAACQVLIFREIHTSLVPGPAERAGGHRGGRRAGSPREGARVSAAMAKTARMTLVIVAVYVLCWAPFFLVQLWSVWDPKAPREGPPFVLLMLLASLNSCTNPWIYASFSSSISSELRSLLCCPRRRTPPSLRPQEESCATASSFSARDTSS

Vasopressin V2 receptor [3] = molecular target: T1, Vasopressin V2 receptor (Sus scrofa, UniProt P32307); assay: Compound was tested for inhibition against V2 vasopressin receptor in pig renal medullary membrane preparations.; type: cell membranes, Renal medulla
T1 sequence (P32307 whole entry): as above

Sus scrofa = species: Sus scrofa; assay: Compound was tested for adenylate cyclase activation in pig renal medullary membrane preparations.; type: functional; settings: Renal medulla
Rattus norvegicus [4] = assay: Compound was tested in vivo to lower urine osmolality to 300 mOsm/kg in hydropenic rat preparation; na=No activity; type: functional, organism-based
Vasopressin V2 receptor [5] = molecular target: T1, Vasopressin V2 receptor; assay: Compound was tested for inhibition against V2 vasopressin receptor in pig renal medullary membrane preparations; e=Partial agonist with a relative Vmax of 14%.; type: functional, cell membranes, Renal medulla

Structure (SMILES) | K bind [2] | ED300 (Rattus norvegicus [1]) | other results
CCOc1ccc(C[C@@H]2NC(=O)CC3(CCCCC3)SSC[C@H](C(=O)N3CCC[C@H]3C(=O)N[C@H](CCCN=C(N)N)C(N)=O)NC(=O)[C@@H](CC(N)=O)NC(=O)[C@H](C(C)C)NC(=O)[C@@H](Cc3ccccc3)NC2=O)cc1 | 280 nM | 0.3 mg/kg | 
CCOc1ccc(C[C@H]2NC(=O)CC(CC)(CC)SSC[C@@H](C(=O)N3CCC[C@H]3C(=O)N[C@@H](CCCN=C(N)N)C(=O)NCC(N)=O)NC(=O)[C@H](CC(N)=O)NC(=O)[C@H](C(C)C)NC(=O)[C@H](Cc3ccccc3)NC2=O)cc1 [listing 1 of 2 here] |  |  | Ki (Vasopressin V2 receptor [3]): 5.3 nM
CCOc1ccc(C[C@H]2NC(=O)CC(CC)(CC)SSC[C@@H](C(=O)N3CCC[C@H]3C(=O)N[C@@H](CCCNC(=N)N)C(N)=O)NC(=O)[C@H](CC(N)=O)NC(=O)[C@H](C(C)C)NC(=O)[C@H](Cc3ccccc3)NC2=O)cc1 |  |  | Ki (Vasopressin V2 receptor [3]): 8.9 nM
CCOc1ccc(C[C@H]2NC(=O)CC(CC)(CC)SSC[C@@H](C(=O)N3CCC[C@H]3C(=O)N[C@@H](CCCN=C(N)N)C(=O)NCC(N)=O)NC(=O)[C@H](CC(N)=O)NC(=O)[C@H](C(C)C)NC(=O)[C@H](Cc3ccccc3)NC2=O)cc1 [listing 2 of 2 here] |  | 0.023 mg/kg | 
CCOc1ccc(C[C@H]2NC(=O)CC3(CCCCC3)SSC[C@H](C(=O)N3CCC[C@H]3C(=O)N[C@H](CCCN=C(N)N)C(=O)NCC(N)=O)NC(=O)[C@@H](CC(N)=O)NC(=O)[C@H](C(C)C)NC(=O)[C@@H](Cc3ccccc3)NC2=O)cc1 | 12 nM |  | 
CCOc1ccc(C[C@H]2NC(=O)CC3(CCCCC3)SSC[C@H](C(=O)N3CCC[C@H]3C(=O)N[C@H](CCCN=C(N)N)C(N)=O)NC(=O)[C@@H](CC(N)=O)NC(=O)[C@H](C(C)C)NC(=O)[C@@H](Cc3ccccc3)NC2=O)cc1 | 12 nM | 0.01 mg/kg | 
CCOc1ccc(C[C@H]2NC(=O)CC(CC)(CC)SSC[C@@H](C(=O)N3CCC[C@H]3C(=O)N[C@@H](CCCN=C(N)N)C(N)=O)NC(=O)[C@H](CC(N)=O)NC(=O)[C@H](C(C)C)NC(=O)[C@H](Cc3ccccc3)NC2=O)cc1 |  | 0.012 mg/kg | 
CCOc1ccc(C[C@H]2NC(=O)CC3(CCCCC3)SSC[C@@H](C(=O)N3CCC[C@H]3C(=O)N[C@@H](CCCN=C(N)N)C(=O)NCC(N)=O)NC(=O)[C@H](CC(N)=O)NC(=O)[C@H](C(C)C)NC(=O)[C@H](Cc3ccccc3)NC2=O)cc1 |  | 0.011 mg/kg | 

More lines, main results first:

K bind [2] | Structure (SMILES) | ED300 (Rattus norvegicus [1]) | other results
30 nM | CCOc1ccc(C[C@H]2NC(=O)CC(CC)(CC)SSC[C@H](C(=O)N3CCC[C@H]3C(=O)N[C@H](CCCN=C(N)N)C(N)=O)NC(=O)[C@@H](CC(N)=O)NC(=O)[C@H](C(C)C)NC(=O)[C@@H](Cc3ccccc3)NC2=O)cc1 |  | 
39 nM | CCOc1ccc(C[C@H]2NC(=O)CC(C)(C)SSC[C@H](C(=O)N3CCC[C@H]3C(=O)N[C@H](CCCN=C(N)N)C(=O)NCC(N)=O)NC(=O)[C@@H](CC(N)=O)NC(=O)[C@H](C(C)C)NC(=O)[C@@H](Cc3ccccc3)NC2=O)cc1 |  | K act (Sus scrofa): 79 nM; ED300 (Rattus norvegicus [4]): inactive; Ki (Vasopressin V2 receptor [5]): Partial agonist
450 nM | CCOc1ccc(C[C@@H]2NC(=O)CC(CC)(CC)SSC[C@H](C(=O)N3CCC[C@H]3C(=O)N[C@H](CCCN=C(N)N)C(N)=O)NC(=O)[C@@H](CC(N)=O)NC(=O)[C@H](C(C)C)NC(=O)[C@@H](Cc3ccccc3)NC2=O)cc1 | 0.12 mg/kg | 
35 nM | CCOc1ccc(C[C@H]2NC(=O)CC(CC)(CC)SSC[C@H](C(=O)N3CCC[C@H]3C(=O)N[C@H](CCCN=C(N)N)C(=O)NCC(N)=O)NC(=O)[C@@H](CC(N)=O)NC(=O)[C@H](C(C)C)NC(=O)[C@@H](Cc3ccccc3)NC2=O)cc1 |  | 
